How the values were obtained:
[1] = target: T1, human GR (glucocorticoid receptor) (Homo sapiens, UniProt P04150); assay: GRE-luciferase reporter transactivation in transfected COS-1 cells; format: cell-based
T1 sequence (P04150 1-777): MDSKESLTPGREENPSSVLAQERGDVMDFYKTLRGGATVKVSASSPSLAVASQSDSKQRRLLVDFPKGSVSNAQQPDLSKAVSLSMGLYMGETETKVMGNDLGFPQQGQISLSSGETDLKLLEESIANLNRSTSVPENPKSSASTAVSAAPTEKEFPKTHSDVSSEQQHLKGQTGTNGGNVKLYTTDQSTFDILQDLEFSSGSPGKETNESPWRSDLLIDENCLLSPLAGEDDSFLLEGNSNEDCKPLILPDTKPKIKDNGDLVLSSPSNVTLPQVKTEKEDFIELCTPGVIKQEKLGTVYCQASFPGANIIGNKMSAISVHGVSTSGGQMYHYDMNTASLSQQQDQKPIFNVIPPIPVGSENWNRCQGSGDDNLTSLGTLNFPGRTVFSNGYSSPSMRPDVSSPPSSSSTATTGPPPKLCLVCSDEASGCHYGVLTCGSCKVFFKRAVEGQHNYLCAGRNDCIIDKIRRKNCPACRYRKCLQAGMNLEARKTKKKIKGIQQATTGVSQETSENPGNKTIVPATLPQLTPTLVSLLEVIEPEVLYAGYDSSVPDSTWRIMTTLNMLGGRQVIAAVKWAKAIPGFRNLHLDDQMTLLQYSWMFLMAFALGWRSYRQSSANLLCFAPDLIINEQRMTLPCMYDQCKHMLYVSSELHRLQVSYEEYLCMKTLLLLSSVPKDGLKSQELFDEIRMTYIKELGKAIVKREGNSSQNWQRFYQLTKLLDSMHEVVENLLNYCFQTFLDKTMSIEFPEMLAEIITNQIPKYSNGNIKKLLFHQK

[2] = target: T1, human GR (glucocorticoid receptor); format: cell-based; settings: for IC50 (M) ± SEM: 20 nM [3H]-DEX, 3 h

EC50 [1] [nM] | IC50 [2] [nM] | IC50 (M) ± SEM [2] | Compound
18.5 | 57.3 | – | C=C1C[C@H]2[C@@H]3CCC4=CC(=O)CC[C@@H]4[C@H]3CC[C@]2(C)[C@@]1(OC(C)=O)C(C)=O [nestorone]
41.7 | 5.58 | – | CC(=O)O[C@]1(C(C)=O)CC[C@H]2[C@@H]3C[C@H](C)C4=CC(=O)CC[C@]4(C)[C@H]3CC[C@@]21C [medroxyprogesterone acetate]
31.9 | – | 1.15 ± 5.2 × 10^-8 M | C#C[C@]1(O)CC[C@H]2[C@@H]3CCC4=CC(=O)CC[C@@H]4[C@H]3C(=C)C[C@@]21CC [etonogestrel]
– | – | 1.35 ± 9.1 × 10^-7 M | C#C[C@]1(O)CC[C@H]2[C@@H]3CCC4=CC(=O)CC[C@@H]4[C@H]3CC[C@@]21CC [levonorgestrel]
